We go through two compounds from patent publication US20250100977A1, “MERCAPTOPYRIMIDINE COMPOUNDS THAT INHIBIT NONHOMOLOGOUS END JOINING AND METHODS THEREOF” (INDIAN INSTITUTE OF SCIENCE, priority 2021, published 2025).

Each structure is given as a SMILES string. Where two headings read alike, the source gives them in different places.

One data set deals with SUDHL8. The experiment in a line: Cytotoxicity in SUDHL8. The format is cell-based. The settings on record: Homo sapiens, SU-DHL-8; Table 2; read-out: IC50 in cancer cell lines, SUDHL8. On the procedure:
(§1) Ligase IV specificity of the compounds of the present invention inside the cells were also determined using Ligase IV knock out (KO) cell line N114 compared to the wild type Nalm6 (Table 2, FIGS. 5C, D, E and F). […] Table 1 showing IC50 of SCR7 derivatives in cancer cell lines Nalm6 and HeLa. IC50 was calculated using GraphPad Prism software from the percentage of viable cells following treatment with the compounds at 48 h. Table 2 showing IC50 of SCR116 and SCR132 in a panel of 16 cancer cell lines.

The next data set concerns HeLa. Put plainly: Cytotoxicity (viable cells) in HeLa. The format is cell-based. The settings on record: read-out: IC50 in cancer cell lines, HeLa. On the procedure: The compounds of the present invention were screened initially in leukemic and cervical cancer cell lines (Table 1). […] In cervical cancer cell line HeLa, IC50 was 5 and 2 μM, respectively for SCR116 and SCR132 (FIG. 5A-B).
as §1

A further data set has as its system L1210. Put plainly: Cytotoxicity in L1210. Type of data set: cell-based. Particulars: Mus musculus, L1210; Table 2; read-out: IC50 in cancer cell lines, L1210. On the procedure:
as §1

The test system of data set [1] is B cells (CD19+) and T cells (CD3+). Put plainly: B and T cells after 28 days SCR116 treatment. The format is in vivo, swiss albino mice. Particulars: oral 80, 160 and 320 mg/kg b.wt. On the procedure: FIG. 14(A-B) depicts the evaluation of effect on B cells after SCR 116 treatment for 28 days in normal swiss albino mice A. After oral administration of low, medium, and high concentrations of SCR116 (80, 160 and 320 mg/kg b.wt. respectively). B is showing quantitation of the total B cell population (CD19+). (ns: not significant, *p<0.05: **p<0.005), in accordance with an implementation of the present disclosure.
FIG. 15(A-B) depicts the evaluation of the effect on T cells after SCR116 treatment for 28 days in normal swiss albino mice. A. After oral administration of low, medium and high concentrations of SCR116 (80, 160 and 320 mg/kg b.wt. respectively). B. is showing the quantitation of the total T cell population (CD3+). (ns: not significant, *p<0.05: **p<0.005), in accordance with an implementation of the present disclosure.
FIG. 13 depicts the blood parameters analysis of Swiss albino mice after 10 days of dose-ranging study after treating with SCR116 and SCR132. A. RBC (n=3). B. Hemoglobin (n=3). C. MCHC (n=3). D. Total leukocyte count (n=3). E. Platelet count (n=3) (ns: not significant, *p<0.05: **p<0.005).

A further data set deals with SCC084 derived xenograft. Put plainly: Mouse xenograft model, SCC084. Type of data set: in vivo. Particulars: oral cancer SCC084 xenograft; 8 oral doses.
Setting [2] is: Homo sapiens, HeLa, 48 h, Table 1, 48 h.

In the case of `Nc1nc(S)nc(O)c1/N=C/c1ccc([N+](=O)[O-])s1` [Compound 16, (E)-6-amino-2-mercapto-5-(((5-nitrothiophen-2-yl)methylene)amino)pyrimidin-4-ol], the 50% inhibitory concentration (IC50) with SUDHL8 was 0.685 µM; in the data set with HeLa (setting [2]) it was 5.92 µM; in the data set on HeLa (Homo sapiens, HeLa, Table 2), 5 µM; with L1210 it was 3.75 µM. Besides, in data set [1], the “Production of B cells” value is reported as “no significant changes”. For the same compound, the “Production of T cells” value in data set [1] is reported as “no significant changes”. The Tumor volume entry in the data set on SCC084 derived xenograft was “significant reduction in tumor volume”.
For `Nc1nc(S)nc(O)c1/N=C/c1sc(Cl)nc1Cl` [Compound 32, (E)-6-amino-5-(((2,4-dichlorothiazol-5-yl)methylene)amino)-2-mercaptopyrimidin-4-ol], the IC50 was 0.81 µM with SUDHL8; 2.08 µM in the data set on HeLa (setting [2]); 2 µM with HeLa (Homo sapiens, HeLa, Table 2); 2.08 µM with HeLa (Table 2, listed as SCR132); 0.879 µM in the data set with L1210. Moreover, the Tumor volume entry in the data set on SCC084 derived xenograft is given as “significant reduction in tumor volume”.
